Source: ChEMBL document CHEMBL1201862, “PubChem BioAssay data set” (2004)
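Five concentrations, 48 hours, 96-well plates. GI50 is the concentration that inhibits growth by half.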 Calls of active or inactive are those of the source. Cut-off read from the data, not from the text of the source: active = GI50 up to about 1.1 µM and inactive = higher.

How the values were obtained:
Test in all cases: growth of human tumour cells (NCI), 48 h
NCI-H226 = test system: NCI-H226
HOP-92 = test system: HOP-92
Malme-3M = test system: Malme-3M
LOX IMVI = test system: LOX IMVI
HT-29 = test system: HT-29
OVCAR-4 = test system: OVCAR-4
K562 = test system: K562
SW-620 = test system: SW-620
IGROV-1 = test system: IGROV-1
RPMI-8226 = test system: RPMI-8226
OVCAR-5 = test system: OVCAR-5
NCI-H522 = test system: NCI-H522
M14 = test system: M14
RXF 393 = test system: RXF 393
UACC-62 = test system: UACC-62
OVCAR-3 = test system: OVCAR-3
SK-MEL-5 = test system: SK-MEL-5
786-0 = test system: 786-0
HCC 2998 = test system: HCC 2998

Measured: GI50

CC(C)(C)c1cc(Br)c(O)c(CN(Cc2cc(C(C)(C)C)cc(Br)c2O)C2CCCCC2)c1
inactive: NCI-H226 15.6 µM | HOP-92 15.5 µM | Malme-3M 11.8 µM | LOX IMVI 16.3 µM | HT-29 6.89 µM | OVCAR-4 10.5 µM | K562 13.3 µM | SW-620 13.1 µM | IGROV-1 15.3 µM | RPMI-8226 11.8 µM | OVCAR-5 15.7 µM | NCI-H522 12.6 µM | M14 12.9 µM | RXF 393 10.7 µM | UACC-62 12.7 µM | OVCAR-3 11.9 µM | SK-MEL-5 10.9 µM | 786-0 14.6 µM

CCOC(=O)C(C)c1nc2cc(F)c(F)cc2[nH]c1=O (stereo not given)
inactive: NCI-H226 > 100 µM | HOP-92 > 100 µM | Malme-3M > 100 µM | LOX IMVI > 100 µM | HT-29 > 100 µM | OVCAR-4 > 100 µM | K562 > 100 µM | SW-620 > 100 µM | RPMI-8226 > 100 µM | OVCAR-5 > 100 µM | M14 > 100 µM | HCC 2998 > 100 µM | RXF 393 > 100 µM | UACC-62 > 100 µM | OVCAR-3 > 100 µM | SK-MEL-5 > 100 µM | 786-0 > 100 µM

COC(=O)N1CC2(CO)C3CC=C(C(=O)Nc4ccccc4Br)C2C1C3Br (stereo not given)
inactive: NCI-H226 > 50 µM | HOP-92 > 50 µM | Malme-3M > 50 µM | LOX IMVI > 50 µM | HT-29 > 50 µM | OVCAR-4 > 50 µM | K562 > 50 µM | SW-620 > 50 µM | IGROV-1 > 50 µM | RPMI-8226 > 50 µM | OVCAR-5 > 50 µM | M14 > 50 µM | HCC 2998 > 50 µM | RXF 393 > 50 µM | UACC-62 > 50 µM | OVCAR-3 > 50 µM | SK-MEL-5 > 50 µM | 786-0 > 50 µM

CCCC(=O)OCC1OC(n2cc(F)c(=O)[nH]c2=O)C(F)C1OC(=O)CCC (stereo not given)
inactive: NCI-H226 > 100 µM | HOP-92 17.4 µM | Malme-3M 36.6 µM | LOX IMVI 47.8 µM | HT-29 45.4 µM | OVCAR-4 5.61 µM | K562 56.1 µM | SW-620 53.6 µM | IGROV-1 58.6 µM | RPMI-8226 9.31 µM | OVCAR-5 96.6 µM | NCI-H522 > 100 µM | M14 36.3 µM | RXF 393 54.7 µM | UACC-62 25.9 µM | OVCAR-3 41.5 µM | SK-MEL-5 36.8 µM | 786-0 18.2 µM

CC(C)CC1N=C(OCc2ccccc2)OC1=O (stereo not given)
inactive: NCI-H226 > 100 µM | HOP-92 > 100 µM | Malme-3M > 100 µM | LOX IMVI > 100 µM | HT-29 > 100 µM | OVCAR-4 > 100 µM | K562 > 100 µM | SW-620 > 100 µM | IGROV-1 > 100 µM | RPMI-8226 > 100 µM | OVCAR-5 > 100 µM | NCI-H522 > 100 µM | M14 > 100 µM | RXF 393 > 100 µM | OVCAR-3 > 100 µM | SK-MEL-5 45.7 µM | 786-0 > 100 µM

COC(OC)[C@@H]1OC[C@H](n2ccc(=O)[nH]c2=O)[C@H]1O
inactive: NCI-H226 > 100 µM | HOP-92 > 100 µM | LOX IMVI > 100 µM | HT-29 > 100 µM | OVCAR-4 > 100 µM | K562 > 100 µM | SW-620 > 100 µM | IGROV-1 > 100 µM | RPMI-8226 > 100 µM | OVCAR-5 > 100 µM | M14 > 100 µM | HCC 2998 > 100 µM | RXF 393 66.4 µM | UACC-62 > 100 µM | OVCAR-3 > 100 µM | SK-MEL-5 > 100 µM | 786-0 > 100 µM

Cc1ccc(S(=O)(=O)NC(CN)C(=O)O)cc1 (stereo not given)
inactive: NCI-H226 > 100 µM | HOP-92 > 100 µM | Malme-3M > 100 µM | LOX IMVI > 100 µM | HT-29 > 100 µM | OVCAR-4 > 100 µM | SW-620 > 100 µM | IGROV-1 > 100 µM | RPMI-8226 > 100 µM | OVCAR-5 > 100 µM | NCI-H522 > 100 µM | M14 > 100 µM | RXF 393 > 100 µM | UACC-62 > 100 µM | OVCAR-3 > 100 µM | SK-MEL-5 > 100 µM | 786-0 > 100 µM

Cn1cc(C=C(C#N)C#N)c(=O)n(C)c1=O
inactive: NCI-H226 > 100 µM | HOP-92 > 100 µM | LOX IMVI > 100 µM | HT-29 > 100 µM | OVCAR-4 > 100 µM | SW-620 56.1 µM | IGROV-1 > 100 µM | RPMI-8226 52 µM | OVCAR-5 > 100 µM | NCI-H522 37.6 µM | M14 > 100 µM | RXF 393 > 100 µM | UACC-62 > 100 µM | OVCAR-3 > 100 µM | SK-MEL-5 > 100 µM | 786-0 > 100 µM

c1ccc2c(c1)nc1n2CSCC1
inactive: NCI-H226 > 100 µM | HOP-92 > 100 µM | LOX IMVI > 100 µM | HT-29 > 100 µM | OVCAR-4 > 100 µM | K562 > 100 µM | SW-620 > 100 µM | IGROV-1 > 100 µM | RPMI-8226 > 100 µM | OVCAR-5 > 100 µM | M14 > 100 µM | HCC 2998 > 100 µM | RXF 393 > 100 µM | UACC-62 > 100 µM | OVCAR-3 > 100 µM | SK-MEL-5 > 100 µM | 786-0 > 100 µM

CCSC12CC3c4cccc5c4C(CN5C(=O)c4ccccc4)CC3(O1)N(C)C2=O (stereo not given)
inactive: NCI-H226 39.6 µM | HOP-92 24.1 µM | Malme-3M 35.6 µM | LOX IMVI 31.3 µM | HT-29 42.6 µM | OVCAR-4 36.9 µM | K562 33.3 µM | SW-620 75.5 µM | IGROV-1 31.3 µM | OVCAR-5 83 µM | NCI-H522 25.1 µM | M14 46.7 µM | RXF 393 71.1 µM | UACC-62 22.5 µM | OVCAR-3 40.8 µM | SK-MEL-5 14.7 µM | 786-0 36.2 µM

C1=N\CCN2CCN(CC/N=C\c3ccc(cc3)OCc3cccc(n3)COc3ccc/1cc3)CC2
inactive: NCI-H226 > 50 µM | HOP-92 40.4 µM | Malme-3M 26.9 µM | HT-29 > 50 µM | OVCAR-4 > 50 µM | K562 > 50 µM | SW-620 > 50 µM | IGROV-1 > 50 µM | RPMI-8226 > 50 µM | OVCAR-5 > 50 µM | NCI-H522 > 50 µM | M14 > 50 µM | RXF 393 11.6 µM | UACC-62 > 50 µM | OVCAR-3 28.8 µM | 786-0 > 50 µM

O=c1cc(CN2CCCCC2)nc2ccc3c(O)cc(CN4CCCCC4)nc3n12
inactive: NCI-H226 > 100 µM | HOP-92 26.2 µM | LOX IMVI > 100 µM | HT-29 > 100 µM | OVCAR-4 > 100 µM | K562 > 100 µM | SW-620 > 100 µM | IGROV-1 > 100 µM | RPMI-8226 > 100 µM | OVCAR-5 > 100 µM | M14 > 100 µM | HCC 2998 > 100 µM | RXF 393 > 100 µM | UACC-62 > 100 µM | OVCAR-3 > 100 µM | SK-MEL-5 > 100 µM | 786-0 > 100 µM
